# Measurements from US10829501B2 (BRISTOL-MYERS SQUIBB COMPANY, priority 2016, dated 2020).
# Where a name gives a salt, the structure may show the parent alone.
# Biological target: ROCK2 (Homo sapiens, UniProt O75116)
# Test: ROCK2 kinase inhibition assay (LABCHIP 3000 Reader, FITC peptide substrate);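 further: rho kinase reaction read by separating phosphorylated from unphosphorylated peptide on chip, with inhibition of kinase activity computed per concentration across a dose-response series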
# Details: not given
# Chain of ROCK2 (O75116 whole entry, species assumed): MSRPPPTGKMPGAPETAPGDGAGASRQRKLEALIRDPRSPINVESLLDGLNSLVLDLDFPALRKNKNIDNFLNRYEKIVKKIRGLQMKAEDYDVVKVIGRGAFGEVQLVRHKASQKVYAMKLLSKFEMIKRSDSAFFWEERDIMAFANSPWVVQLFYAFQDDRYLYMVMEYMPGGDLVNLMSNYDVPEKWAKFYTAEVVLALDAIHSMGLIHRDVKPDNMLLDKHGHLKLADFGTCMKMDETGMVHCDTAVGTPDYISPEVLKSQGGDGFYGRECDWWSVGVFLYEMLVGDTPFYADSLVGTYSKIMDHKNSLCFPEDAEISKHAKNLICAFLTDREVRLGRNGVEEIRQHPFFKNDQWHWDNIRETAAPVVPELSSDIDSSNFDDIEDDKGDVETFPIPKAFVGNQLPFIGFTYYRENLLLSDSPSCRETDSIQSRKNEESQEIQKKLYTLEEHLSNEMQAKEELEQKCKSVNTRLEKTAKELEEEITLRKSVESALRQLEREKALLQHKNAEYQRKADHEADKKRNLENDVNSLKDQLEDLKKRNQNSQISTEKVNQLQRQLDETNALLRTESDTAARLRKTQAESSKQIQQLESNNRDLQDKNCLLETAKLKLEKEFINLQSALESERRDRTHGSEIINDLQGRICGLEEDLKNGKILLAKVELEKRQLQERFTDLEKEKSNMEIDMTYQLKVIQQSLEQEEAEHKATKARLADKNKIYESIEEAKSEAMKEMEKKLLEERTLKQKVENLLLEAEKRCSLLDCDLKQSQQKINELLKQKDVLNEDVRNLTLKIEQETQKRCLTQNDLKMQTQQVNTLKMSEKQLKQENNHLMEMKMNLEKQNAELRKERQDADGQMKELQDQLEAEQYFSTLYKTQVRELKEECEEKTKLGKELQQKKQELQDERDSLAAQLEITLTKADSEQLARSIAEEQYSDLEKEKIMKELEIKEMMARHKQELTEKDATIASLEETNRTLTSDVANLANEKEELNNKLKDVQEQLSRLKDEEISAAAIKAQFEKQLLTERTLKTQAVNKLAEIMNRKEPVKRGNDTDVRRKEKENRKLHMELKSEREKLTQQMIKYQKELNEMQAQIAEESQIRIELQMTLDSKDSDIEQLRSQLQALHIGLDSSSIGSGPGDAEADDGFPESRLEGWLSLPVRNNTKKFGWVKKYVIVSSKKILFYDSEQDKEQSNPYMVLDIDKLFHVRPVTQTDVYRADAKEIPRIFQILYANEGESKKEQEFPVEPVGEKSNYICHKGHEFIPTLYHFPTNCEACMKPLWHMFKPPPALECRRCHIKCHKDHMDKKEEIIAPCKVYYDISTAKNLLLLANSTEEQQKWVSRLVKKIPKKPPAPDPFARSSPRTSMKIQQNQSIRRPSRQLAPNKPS
row,SMILES,IC50
1,"[H][C@]1(Oc2ncccc2C(N)=O)C[C@@]2(C[C@H](NC(=O)c3cnc4c(OC)cc(Cl)nn34)C2)C1 (stereo partly drawn) [Example 60, N-((aR)-6-((3-carbamoylpyridin-2-yl)oxy)spiro[3.3]heptan-2-yl)-6-chloro-8-methoxyimidazo[1,2-b]pyridazine-3-carboxamide]",250 to 2500 nM
2,"CC(C)(O)COc1ccn2c(C(=O)N[C@H]3CC4(C3)C[C@H](Oc3ncccc3C(N)=O)C4)cnc2c1C1CC1 (stereo partly drawn) [Example 65, N-((aR)-6-((3-carbamoylpyridin-2-yl)oxy)spiro[3.3]heptan-2-yl)-8-cyclopropyl-7-(2-hydroxy-2-methylpropoxy) imidazo[1,2-a]pyridine-3-carboxamide, trifluoroacetate]",< 5 nM
3,"NC(=O)c1cccnc1O[C@H]1CC2(C[C@H](NC(=O)c3ccc(-n4cccn4)cc3)C2)C1 (stereo partly drawn) [Example 74, 2-((aR)-6-(4-(1H-pyrazol-1-yl)benzamido)spiro[3.3]heptan-2-yl)oxy) nicotinamide, trifluoroacetate]",250 to 2500 nM
4,"CC(C)(O)COc1ccc2c(C(=O)NC3CC4(C3)CC(Oc3cc(-c5ccccn5)ccc3C(N)=O)C4)cnn2c1 (stereo not shown) [Example 237, N-(6-(2-carbamoyl-5-(pyridin-2-yl)phenoxy)spiro[3.3]heptan-2-yl)-6-(2-hydroxy-2-methylpropoxy)pyrazolo[1,5-a]pyridine-3-carboxamide]",5 to 50 nM
5,[H][C@]1(Oc2ncccc2C(N)=O)C[C@@]2(C[C@H](NC(=O)c3cc(OCCC(F)(F)F)cc(-c4cccc(S(C)(=O)=O)c4)c3)C2)C1 (stereo partly shown) [Example 58],50 to 250 nM
6,"CC(C)(O)COc1ccc2c(C(=O)NC3CC4(C3)CC(Oc3cc(-c5cccc(CN)c5)ccc3C(N)=O)C4)cnn2c1 (stereo not shown) [Example 252, N-(6-((3′-(aminomethyl)-4-carbamoyl-[1,1′-biphenyl]-3-yl)oxy)spiro[3.3]heptan-2-yl)-6-(2-hydroxy-2-methylpropoxy)pyrazolo[1,5-a]pyridine-3-carboxamide]",5 to 50 nM
7,"NC(=O)c1cccnc1O[C@H]1CC2(C[C@H](NC(=O)c3cnc4cc(C(F)(F)F)ccn34)C2)C1 (stereo partly drawn) [Example 334, N-((aR)-6-((3-carbamoylpyridin-2-yl)oxy)spiro[3.3]heptan-2-yl)-7-(trifluoromethyl)imidazo[1,2-a]pyridine-3-carboxamide]",50 to 250 nM
8,"CS(=O)(=O)c1ccc2c(c1)CCN2C(=O)N[C@H]1CC2(C1)C[C@H](Oc1ccccc1C(N)=O)C2 (stereo partly drawn) [Example 39, N-[(aR)-6-(2-carbamoylphenoxy)spiro [3.3]heptan-2-yl]-5-methanesulfonyl-2,3-dihydro-1H-indole-1-carboxamide]",50 to 250 nM
9,"NC(=O)c1cccnc1O[C@H]1CC2(C[C@H](NC(=O)c3cnn4c(C5CC5)c(OCCOCC(F)(F)F)ccc34)C2)C1 (stereo partly drawn) [Example 340, N-((aR)-6-((3-carbamoylpyridin-2-yl)oxy)spiro[3.3]heptan-2-yl)-7-cyclopropyl-6-(2-(2,2,2-trifluoroethoxy)ethoxy)pyrazolo[1,5-a]pyridine-3-carboxamide]",5 to 50 nM
10,"CC(C)(O)COc1ccc2c(C(=O)NC3CC4(C3)CC(Oc3cc(-c5cccc(CCN)c5)ccc3C(N)=O)C4)cnn2c1 (stereo not shown) [Example 261, N-(6-((3′-(2-aminoethyl)-4-carbamoyl-[1,1′-biphenyl]-3-yl)oxy)spiro[3.3]heptan-2-yl)-6-(2-hydroxy-2-methylpropoxy)pyrazolo[1,5-a]pyridine-3-carboxamide]",< 5 nM
11,"COCc1cccc(-c2ccc(C(N)=O)c(OC3CC4(CC(NC(=O)c5cnn6cc(OCC(C)(C)O)ccc56)C4)C3)c2)c1 (stereo not shown) [Example 245, N-(6-((4-carbamoyl-3′-(methoxymethyl)-[1,1′-biphenyl]-3-yl)oxy)spiro[3.3]heptan-2-yl)-6-(2-hydroxy-2-methylpropoxy)pyrazolo[1,5-a]pyridine-3-carboxamide]",5 to 50 nM
12,"Cn1cccc(-c2cc(C#N)cc(C(=O)N[C@H]3CC4(C3)C[C@H](Oc3ncccc3C(N)=O)C4)c2)c1=O (stereo partly drawn) [Example 194, 2-(((aR)-6-(3-cyano-5-(1-methyl-2-oxo-1,2-dihydropyridin-3-yl)benzamido)spiro[3.3]heptan-2-yl)oxy)nicotinamide, trifluoroacetate]",5 to 50 nM
13,"CNC(=O)c1cccc(-c2ccc(C(N)=O)c(OC3CC4(CC(NC(=O)c5cnn6cc(OCC(C)(C)O)ccc56)C4)C3)c2)c1 (stereo not shown) [Example 287, 3′-((6-(6-(2-hydroxy-2-methylpropoxy)pyrazolo[1,5-a]pyridine-3-carboxamido)spiro[3.3]heptan-2-yl)oxy)-N3-methyl-[1,1′-biphenyl]-3,4′-dicarboxamide]",5 to 50 nM
14,"CC(C)(O)COc1ccc2c(C(=O)NC3CC4(C3)CC(Oc3cc(-n5cccn5)ccc3C(N)=O)C4)cnn2c1 (stereo not shown) [Example 223, N-(6-(2-carbamoyl-5-(1H-pyrazol-1-yl)phenoxy)spiro[3.3]heptan-2-yl)-6-(2-hydroxy-2-methylpropoxy)pyrazolo[1,5-a]pyridine-3-carboxamide]",5 to 50 nM
15,"CC(C)(O)COc1ccc2c(C(=O)NC3CC4(C3)CC(Oc3cc(-c5cccc(S(=O)(=O)NCCO)c5)ccc3C(N)=O)C4)cnn2c1 (stereo not shown) [Example 297, N-(6-((4-carbamoyl-3′-(N-(2-hydroxyethyl)sulfamoyl)-[1,1′-biphenyl]-3-yl)oxy)spiro[3.3]heptan-2-yl)-6-(2-hydroxy-2-methylpropoxy)pyrazolo[1,5-a]pyridine-3-carboxamide]",< 5 nM
16,"CC(C)(O)COc1ccc2c(C(=O)NC3CC4(C3)CC(Oc3cc(-c5cccc(C(=O)O)c5)ccc3C(N)=O)C4)cnn2c1 (stereo not shown) [Example 296, 4′-carbamoyl-3′-((6-(6-(2-hydroxy-2-methylpropoxy)pyrazolo[1,5-a]pyridine-3-carboxamido)spiro[3.3]heptan-2-yl)oxy)-[1,1′-biphenyl]-3-carboxylic acid]",5 to 50 nM
17,"CC(C)(C)c1ccnc(C(=O)N[C@H]2CC3(C2)C[C@H](Oc2ncccc2C(N)=O)C3)c1 (stereo partly drawn) [Example 110, 4-(tert-butyl)-N-((aR)-6-((3-carbamoylpyridin-2-yl)oxy)spiro[3.3]heptan-2-yl)picolinamide, bis-trifluoroacetate]",5 to 50 nM
18,"CNC(=O)c1cc(-c2ccc(C(N)=O)c(OC3CC4(CC(NC(=O)c5cnn6cc(OCC(C)(C)O)ccc56)C4)C3)c2)ccc1F (stereo not shown) [Example 295, 4-fluoro-3′-((6-(6-(2-hydroxy-2-methylpropoxy)pyrazolo[1,5-a]pyridine-3-carboxamido)spiro[3.3]heptan-2-yl)oxy)-N3-methyl-[1,1′-biphenyl]-3,4′-dicarboxamide]",5 to 50 nM
19,"NC(=O)c1cccnc1O[C@H]1CC2(C[C@H](NC(=O)c3cnn4c(C5CC5)c(OCC5(O)CC(F)(F)C5)ccc34)C2)C1 (stereo partly drawn) [Example 415, N-((aR)-6-((3-carbamoylpyridin-2-yl)oxy)spiro[3.3]heptan-2-yl)-7-cyclopropyl-6-((3,3-difluoro-1-hydroxycyclobutyl)methoxy)pyrazolo[1,5-a]pyridine-3-carboxamide, TFA]",< 5 nM
20,"Cc1ccc(OC2CC3(CC(NC(=O)c4cnn5c(C6CC6)c(OCC(C)(C)O)ccc45)C3)C2)c(C(N)=O)c1 (stereo not shown) [Example 216, N-(6-(2-carbamoyl-4-methylphenoxy)spiro[3.3]heptan-2-yl)-7-cyclopropyl-6-(2-hydroxy-2-methylpropoxy)pyrazolo[1,5-a]pyridine-3-carboxamide]",5 to 50 nM
21,"NC(=O)c1cccnc1O[C@H]1CC2(C[C@H](NC(=O)c3cnc4cc(N5CCOCC5)ccn34)C2)C1 (stereo partly drawn) [Example 356, N-((aR)-6-((3-carbamoylpyridin-2-yl)oxy)spiro[3.3]heptan-2-yl)-7-morpholinoimidazo[1,2-a]pyridine-3-carboxamide]",5 to 50 nM
22,"CC(C)(O)COc1ccc2c(C(=O)NC3CC4(C3)CC(Oc3cc(-c5ccccc5C(F)(F)F)ccc3C(N)=O)C4)cnn2c1 (stereo not shown) [Example 228, N-(6-((4-carbamoyl-2′-(trifluoromethyl)-[1,1′-biphenyl]-3-yl)oxy)spiro[3.3]heptan-2-yl)-6-(2-hydroxy-2-methylpropoxy)pyrazolo[1,5-a]pyridine-3-carboxamide]",50 to 250 nM
23,"Cc1ccc(C(N)=O)c(OC2CC3(CC(NC(=O)c4cnn5cc(OCC(C)(C)O)ccc45)C3)C2)c1 (stereo not shown) [Example 215, N-(6-(2-carbamoyl-5-methylphenoxy)spiro[3.3]heptan-2-yl)-6-(2-hydroxy-2-methylpropoxy)pyrazolo[1,5-a]pyridine-3-carboxamide]",5 to 50 nM
24,"NC(=O)c1cccnc1O[C@H]1CC2(C[C@H](NC(=O)c3cnn4cc(OCCOC(F)(F)F)ccc34)C2)C1 (stereo partly drawn) [Example 125, N-((aR)-6-((3-carbamoylpyridin-2-yl)oxy)spiro[3.3]heptan-2-yl)-6-(2-(trifluoromethoxy)ethoxy) pyrazolo[1,5-a] pyridine-3-carboxamide, t rifluoroacetate]",5 to 50 nM

# Same assay, conditions: read-out: ROCK2 Activity (ROCK2 IC50); 5 μM ATP, 1.5 μM peptide substrate, pH 7.5
row,SMILES,IC50
1,"Cc1c(C(=O)NC2CC3(C2)CC(Oc2ncccc2C(N)=O)C3)cnn1-c1ccc(S(C)(=O)=O)cc1 [Example 387, N-[(aR)2-({6-[1-(4-methanesulfonylphenyl)-5-methyl-1H-pyrazole-4-amido]spiro[3.3]heptan-2-yl}oxy)pyridine-3-carboxamide 1 trifluoroacetic acid salt]",5 to 50 nM
2,"CC(C)(C#N)n1nc(C(=O)NC2CC3(C2)CC(Oc2ncccc2C(N)=O)C3)c2ccc(F)cc21 [Example 401, N-((aR)-6-((3-carbamoylpyridin-2-yl)oxy)spiro[3.3]heptan-2-yl)-1-(2-cyanopropan-2-yl)-6-fluoro-1H-indazole-3-carboxamide, TFA]",< 5 nM
3,"Cc1c(C(=O)N[C@H]2CC3(C2)C[C@H](Oc2ncccc2C(N)=O)C3)cnn1Cc1ccc(F)cc1 (stereo partly drawn) [Example 383, N-[(aR)2-[(6-{1-[(4-fluorophenyl)methyl]-5-methyl-1H-pyrazole-4-amido}spiro[3.3]heptan-2-yl)oxy]pyridine-3-carboxamide 1 trifluoroacetic acid salt]",5 to 50 nM
4,"Cn1cc(-c2ccc3c(C(=O)NC4CC5(C4)CC(Oc4ncccc4C(N)=O)C5)nn(CC4(O)CC(F)(F)C4)c3c2)cn1 [Example 404, N-((aR)-6-((3-carbamoylpyridin-2-yl)oxy)spiro[3.3]heptan-2-yl)-1-((3,3-difluoro-1-hydroxycyclobutyl)methyl)-6-(1-methyl-1H-pyrazol-4-yl)-1H-indazole-3-carboxamide, TFA]",5 to 50 nM
